The data set relates to CCRIS mutagenicity, Ames/micronucleus/aberration tests. Put plainly: CCRIS mutagenicity studies.
[1] abbreviates: Test System: AMES SALMONELLA TYPHIMURIUM, Strain/Indicator: TA98, Metabolic Activation: NONE, Method: PREINCUBATION
[2] abbreviates: Test System: AMES SALMONELLA TYPHIMURIUM, Strain/Indicator: TA100, Metabolic Activation: NONE, Method: PREINCUBATION
Setting [3] is: Test System: AMES SALMONELLA TYPHIMURIUM, Strain/Indicator: TA98, Metabolic Activation: NONE, Method: STANDARD PLATE.
The mark [4] stands for this setting: Test System: AMES SALMONELLA TYPHIMURIUM, Strain/Indicator: TA100, Metabolic Activation: NONE, Method: STANDARD PLATE.
The mark [5] stands for this setting: Test System: AMES SALMONELLA TYPHIMURIUM, Strain/Indicator: TA102, Metabolic Activation: NONE, Method: STANDARD PLATE.
The mark [6] stands for this setting: Test System: AMES SALMONELLA TYPHIMURIUM, Strain/Indicator: TA97, Metabolic Activation: NONE, Method: PREINCUBATION

The structures appear in SMILES notation. Active and inactive are the calls of the source. How the calls were made is not given here.

Turning to `CCc1cccc(CC)c1NC(=O)CCl`, the mutagenic call by setting is: under setting [1], “inactive; negative”; (Test System: AMES SALMONELLA TYPHIMURIUM, Strain/Indicator: TA98, Metabolic Activation: RAT, LIVER, MICROSOMES, PHENOBARBITAL, Method: PREINCUBATION) “inactive; negative”; under setting [2], “active; positive”; (Test System: AMES SALMONELLA TYPHIMURIUM, Strain/Indicator: TA100, Metabolic Activation: RAT, LIVER, MICROSOMES, PHENOBARBITAL, Method: PREINCUBATION) “active; positive”.
Turning to `Nc1nc2n[nH]nc2c(=O)[nH]1`, the mutagenic call under setting [3] was “inactive; negative”; the mutagenic call (Test System: AMES SALMONELLA TYPHIMURIUM, Strain/Indicator: TA98, Metabolic Activation: S-9, Method: STANDARD PLATE) was “inactive; negative”; the mutagenic call under setting [4] was “inactive; negative”; the mutagenic call (Test System: AMES SALMONELLA TYPHIMURIUM, Strain/Indicator: TA100, Metabolic Activation: S-9, Method: STANDARD PLATE) is “inactive; negative”; the mutagenic call under setting [5] is “inactive; negative”; the mutagenic call (Test System: AMES SALMONELLA TYPHIMURIUM, Strain/Indicator: TA1537, Metabolic Activation: NONE, Method: STANDARD PLATE) was “inactive; negative”. Also, the mutagenic call (Test System: AMES SALMONELLA TYPHIMURIUM, Strain/Indicator: TA1537, Metabolic Activation: S-9, Method: STANDARD PLATE) is “inactive; negative”; the mutagenic call (Test System: E. COLI, Strain/Indicator: WP2 (HCR), Metabolic Activation: NONE, Method: STANDARD PLATE) is “inactive; negative”; the mutagenic call (Test System: E. COLI, Strain/Indicator: WP2 (HCR), Metabolic Activation: S-9, Method: STANDARD PLATE) is “inactive; negative”.
In the case of `NCCCCCCCCCCC(=O)O`, the mutagenic call is “inactive; negative; precipitation occurred at 1000 ug/ml” (End Point: IN VITRO CHROMOSOMAL ABERRATIONS, Test System: CHINESE HAMSTER OVARY CELLS, Metabolic Activation: NONE); “inactive; negative; precipitation occurred at 1000 ug/ml” (End Point: IN VITRO CHROMOSOMAL ABERRATIONS, Test System: CHINESE HAMSTER OVARY CELLS, Metabolic Activation: RAT, LIVER, S-9, AROCLOR 1254); “inactive; negative” (Test System: UDS RAT HEPATOCYTES, Strain/Indicator: BROMODEOXYURIDINE INCORP, Metabolic Activation: NONE, Method: FLOW CYTOMETRIC ANALYSIS).
For `CCC(C)(C)c1ccc(O)cc1`, the mutagenic call by setting is: (Test System: AMES SALMONELLA TYPHIMURIUM, Strain/Indicator: TA97, Metabolic Activation: HAMSTER, LIVER, S-9, AROCLOR 1254 (10%), Method: PREINCUBATION) “inactive; negative”; (Test System: AMES SALMONELLA TYPHIMURIUM, Strain/Indicator: TA97, Metabolic Activation: HAMSTER, LIVER, S-9, AROCLOR 1254 (30%), Method: PREINCUBATION) “inactive; negative”; under setting [6], “inactive; negative”; (Test System: AMES SALMONELLA TYPHIMURIUM, Strain/Indicator: TA97, Metabolic Activation: RAT, LIVER, S-9, AROCLOR 1254 (10%), Method: PREINCUBATION) “inactive; negative”; (Test System: AMES SALMONELLA TYPHIMURIUM, Strain/Indicator: TA97, Metabolic Activation: RAT, LIVER, S-9, AROCLOR 1254 (30%), Method: PREINCUBATION) “inactive; negative”; (Test System: AMES SALMONELLA TYPHIMURIUM, Strain/Indicator: TA98, Metabolic Activation: HAMSTER, LIVER, S-9, AROCLOR 1254 (10%), Method: PREINCUBATION) “inactive; negative”. Moreover, the mutagenic call (Test System: AMES SALMONELLA TYPHIMURIUM, Strain/Indicator: TA98, Metabolic Activation: HAMSTER, LIVER, S-9, AROCLOR 1254 (30%), Method: PREINCUBATION) is “inactive; negative”; the mutagenic call under setting [1] was “inactive; negative”; the mutagenic call (Test System: AMES SALMONELLA TYPHIMURIUM, Strain/Indicator: TA98, Metabolic Activation: RAT, LIVER, S-9, AROCLOR 1254 (10%), Method: PREINCUBATION) was “inactive; negative”; the mutagenic call (Test System: AMES SALMONELLA TYPHIMURIUM, Strain/Indicator: TA98, Metabolic Activation: RAT, LIVER, S-9, AROCLOR 1254 (30%), Method: PREINCUBATION) was “inactive; negative”; the mutagenic call (Test System: AMES SALMONELLA TYPHIMURIUM, Strain/Indicator: TA100, Metabolic Activation: HAMSTER, LIVER, S-9, AROCLOR 1254 (10%), Method: PREINCUBATION) was “inactive; negative”; the mutagenic call (Test System: AMES SALMONELLA TYPHIMURIUM, Strain/Indicator: TA100, Metabolic Activation: HAMSTER, LIVER, S-9, AROCLOR 1254 (30%), Method: PREINCUBATION) is “inactive; negative”. In addition, the mutagenic call under setting [2] was “inactive; negative”; the mutagenic call (Test System: AMES SALMONELLA TYPHIMURIUM, Strain/Indicator: TA100, Metabolic Activation: RAT, LIVER, S-9, AROCLOR 1254 (10%), Method: PREINCUBATION) is “inactive; negative”; the mutagenic call (Test System: AMES SALMONELLA TYPHIMURIUM, Strain/Indicator: TA100, Metabolic Activation: RAT, LIVER, S-9, AROCLOR 1254 (30%), Method: PREINCUBATION) was “inactive; negative”; the mutagenic call (Test System: AMES SALMONELLA TYPHIMURIUM, Strain/Indicator: TA1535, Metabolic Activation: HAMSTER, LIVER, S-9, AROCLOR 1254 (10%), Method: PREINCUBATION) is “inactive; negative”; the mutagenic call (Test System: AMES SALMONELLA TYPHIMURIUM, Strain/Indicator: TA1535, Metabolic Activation: HAMSTER, LIVER, S-9, AROCLOR 1254 (30%), Method: PREINCUBATION) is “inactive; negative”; the mutagenic call (Test System: AMES SALMONELLA TYPHIMURIUM, Strain/Indicator: TA1535, Metabolic Activation: NONE, Method: PREINCUBATION) is “inactive; negative”. In addition, the mutagenic call is, setting by setting: (Test System: AMES SALMONELLA TYPHIMURIUM, Strain/Indicator: TA1535, Metabolic Activation: RAT, LIVER, S-9, AROCLOR 1254 (10%), Method: PREINCUBATION) “inactive; negative”; (Test System: AMES SALMONELLA TYPHIMURIUM, Strain/Indicator: TA1535, Metabolic Activation: RAT, LIVER, S-9, AROCLOR 1254 (30%), Method: PREINCUBATION) “inactive; negative”.
Take `Nc1ccc(Cc2ccc(NO)c(Cl)c2)cc1Cl`: the mutagenic call is, setting by setting: under setting [1], “active; positive”; under setting [2], “active; positive”.
With `O=C1OC(O)C(C(Br)Br)=C1Cl` (configuration not stated), the mutagenic call by setting is: under setting [3], “active; positive”; (Test System: AMES SALMONELLA TYPHIMURIUM, Strain/Indicator: TA98, Metabolic Activation: RAT LIVER S-9, AROCLOR 1254, Method: STANDARD PLATE) “inactive; negative”; under setting [4], “active; positive”; (Test System: AMES SALMONELLA TYPHIMURIUM, Strain/Indicator: TA100, Metabolic Activation: RAT LIVER S-9, AROCLOR 1254, Method: STANDARD PLATE) “inactive; negative”.
Turning to `CC(C)(C)NC[C@H](O)COc1ccccc1C1CCCC1`, the mutagenic call runs as follows: under setting [3], “active; positive”; (Test System: AMES SALMONELLA TYPHIMURIUM, Strain/Indicator: TA98, Metabolic Activation: RAT, LIVER, S-9, AROCLOR 1254, Method: STANDARD PLATE) “inactive; negative”; under setting [4], “inactive; negative”; (Test System: AMES SALMONELLA TYPHIMURIUM, Strain/Indicator: TA100, Metabolic Activation: RAT, LIVER, S-9, AROCLOR 1254, Method: STANDARD PLATE) “inactive; negative”; under setting [5], “inactive; negative”; (Test System: AMES SALMONELLA TYPHIMURIUM, Strain/Indicator: TA102, Metabolic Activation: RAT, LIVER, S-9, AROCLOR 1254, Method: STANDARD PLATE) “inactive; negative”.
As for `O=C([O-])[C@H](O)[C@@H](O)[C@H](O)[C@H](O)CO.O=C([O-])[C@H](O)[C@@H](O)[C@H](O)[C@H](O)CO.[Cu+2]`, the mutagenic call by setting is: under setting [6], “inactive; negative”; (Test System: AMES SALMONELLA TYPHIMURIUM, Strain/Indicator: TA97, Metabolic Activation: S-9, Method: PREINCUBATION) “inactive; negative”; (Test System: AMES SALMONELLA TYPHIMURIUM, Strain/Indicator: TA102, Metabolic Activation: NONE, Method: PREINCUBATION) “inactive; negative”; (Test System: AMES SALMONELLA TYPHIMURIUM, Strain/Indicator: TA102, Metabolic Activation: S-9, Method: PREINCUBATION) “inactive; negative”.

These data come from PubChem BioAssay AID1259407 (Chemical Carcinogenesis Research Information System (CCRIS), 2018).
